Assay results published in ChEMBL document CHEMBL4393659, “Insights into the chemistry and therapeutic potential of furanones: A versatile pharmacophore” (Eur J Med Chem, 2019).
≈ marks a conversion by molar mass, not a printed value. Each block holds one molecule with its values, some of them ahead of it.

How the values were obtained:
SK-OV-3 = experiment: Cytotoxicity against human SKOV3 cells assessed as reduction in cell viability incubated for 48 hrs by SRB method; type: functional; conditions: SK-OV-3, 48 h, read-out: ED50 (the source's name)
A549 = experiment: Cytotoxicity against human A549 cells assessed as reduction in cell viability incubated for 48 hrs by SRB method; type: functional; conditions: A549, 48 h, read-out: ED50 (the source's name)
NIH3T3 = experiment: Cytotoxicity against mouse NIH/3T3 cells assessed as reduction in cell viability incubated for 48 hrs by SRB method; type: functional; conditions: NIH3T3, 48 h, read-out: ED50 (the source's name)
Aspergillus fumigatus [1] = experiment: Antifungal activity against Aspergillus fumigatus assessed as reduction in fungal cell viability measured after 24 and 48 hrs by broth microdilution method; type: functional
[2] = target: Prostaglandin G/H synthase 2 (Homo sapiens, UniProt P35354); experiment: Inhibition of recombinant human COX2 expressed in baculovirus infected Sf9 cells
Prostaglandin G/H synthase 2, sequence (P35354 whole entry): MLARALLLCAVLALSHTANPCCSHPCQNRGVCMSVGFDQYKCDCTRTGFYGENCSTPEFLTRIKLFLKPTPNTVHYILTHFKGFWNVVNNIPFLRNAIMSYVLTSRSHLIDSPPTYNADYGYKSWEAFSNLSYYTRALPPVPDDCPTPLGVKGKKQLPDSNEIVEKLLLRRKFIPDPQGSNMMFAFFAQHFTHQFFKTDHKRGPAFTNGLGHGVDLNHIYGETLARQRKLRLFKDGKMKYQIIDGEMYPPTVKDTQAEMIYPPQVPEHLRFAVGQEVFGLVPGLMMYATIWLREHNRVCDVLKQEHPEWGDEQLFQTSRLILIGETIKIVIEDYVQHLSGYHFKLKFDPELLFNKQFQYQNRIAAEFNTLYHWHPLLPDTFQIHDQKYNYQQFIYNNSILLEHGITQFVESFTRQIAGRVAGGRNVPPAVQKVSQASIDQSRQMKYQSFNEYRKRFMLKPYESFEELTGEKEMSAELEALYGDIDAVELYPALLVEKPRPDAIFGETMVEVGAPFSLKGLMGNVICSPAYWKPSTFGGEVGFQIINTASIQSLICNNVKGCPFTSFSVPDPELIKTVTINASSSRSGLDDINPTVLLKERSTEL

Salmonella typhimurium = experiment: Inhibition of biofilm formation in Salmonella enterica subsp. enterica serovar Typhimurium 14028S incubated for 48 hrs by crystal violet staining based assay; type: functional, organism-based
Mus musculus [3] = experiment: Anticonvulsant activity in ip dosed mouse assessed as reduction in PTZ-induced seizures pretreated for 30 mins followed by PTZ addition; type: functional
Escherichia coli [4] = experiment: Antibacterial activity against Escherichia coli; type: functional
Rattus norvegicus [5] = organism: Rattus norvegicus; experiment: Antiarthritic activity in adjuvant-induced Sprague-Dawley rat; type: functional
[6] = target: GABA-A receptor; anion channel; experiment: Displacement of [35S]TBPS from GABAA (unknown origin) incubated for 90 mins by scintillation counting method; type: protein-complex assay, Homo sapiens
Mus musculus [7] = experiment: Anticonvulsant activity in ip dosed CF-1 mouse assessed as protection against PTZ-induced seizures measured after 30 mins […]; type: functional
Liver = experiment: Antioxidant activity in Wistar rat liver microsomes assessed as inhibition of AAPH-induced MDA production at 100 mM incubated for 15 mins; type: functional; conditions: Microsome
Candida albicans [8] = experiment: Antifungal activity against Candida albicans ATCC 90028 assessed as reduction in fungal cell viability measured after 24 and 48 hrs by spectrophotometry; type: functional
Staphylococcus aureus [9] = experiment: Antibacterial activity against Staphylococcus aureus; type: functional
Escherichia coli [10] = experiment: Antibacterial activity against Escherichia coli assessed as inhibition zone incubated for 24 hrs by disk diffusion method relative to control; type: functional
Staphylococcus aureus [11] = experiment: Antibacterial activity against Staphylococcus aureus ATCC 29737 assessed as reduction in bacterial cell viability incubated for 24 hrs by broth microdilution method; type: functional; conditions: ATCC 29737, 24 h
Pseudomonas aeruginosa = experiment: Antibacterial activity against Pseudomonas aeruginosa NCLM-2035 assessed as reduction in bacterial cell viability incubated for 24 hrs by broth microdilution method; type: functional; conditions: NCLM-2035, 24 h
Escherichia coli [12] = experiment: Antibacterial activity against Escherichia coli ATCC 8739 assessed as reduction in bacterial cell viability incubated for 24 hrs by broth microdilution method; type: functional; conditions: ATCC 8739, 24 h
Rhizopus arrhizus = experiment: Antifungal activity against Rhizopus oryzae assessed as reduction in fungal cell viability incubated for 48 hrs by broth microdilution method; type: functional
Candida albicans [13] = experiment: Antifungal activity against Candida albicans assessed as reduction in fungal cell viability incubated for 48 hrs by broth microdilution method; type: functional
Aspergillus niger = experiment: Antifungal activity against Aspergillus niger assessed as reduction in fungal cell viability incubated for 48 hrs by broth microdilution method; type: functional
Rattus norvegicus [14] = experiment: Antiinflammatory activity in Wistar rat assessed as inhibition of carrageenan-induced edema measured upto 4 hrs; type: functional
Rattus norvegicus [15] = experiment: Antiinflammatory activity in Wistar albino rat assessed as inhibition of carrageenan-induced paw edema at 20 mg/kg , po incubated for 30 mins followed by carrageenan addition and measured after 3 hrs by plethysmometry relative to control; type: functional
Mus musculus [16] = experiment: Analgesic activity in Swiss albino mouse assessed as inhibition of acetic acid induced writhing at 20 mg/kg , po incubated for 3 hrs followed by acetic acid administered and observed for 5 to 15 mins relative to control; type: functional
Rattus norvegicus [17] = experiment: Antiinflammatory activity in Sprague-Dawley rat assessed as inhibition of carrageenan-induced paw edema at 3 mg/kg , po incubated for 1 hr followed by carrageenan addition and measured after 4 hrs relative to control; type: functional
[18] = Ulcerogenicity in Sprague-Dawley rat assessed as gastric lesions at 30 mg/kg , po measured after 4 hrs; type: toxicity, organism-based; conditions: in vivo
Rattus norvegicus [19] = experiment: Antiinflammatory activity in Sprague-Dawley rat assessed as inhibition of carrageenan-induced paw edema at 3 mg/kg , po relative to control; type: functional
Plasmodium falciparum = experiment: Antimalarial activity against Plasmodium falciparum infected in human blood assessed as reduction in cell viability incubated for 72 hrs by Giemsa stain based assay; type: functional
Rattus norvegicus [20] = experiment: Antiinflammatory activity in albino rat assessed as inhibition of carrageenan-induced paw edema by measuring mercury displacement at 20 mg/kg , po relative to control; type: functional
Lichtheimia corymbifera = experiment: Antifungal activity against Absidia corymbifera assessed as reduction in fungal cell viability by broth dilution method; type: functional
Aspergillus fumigatus [21] = experiment: Antifungal activity against Aspergillus fumigatus assessed as reduction in fungal cell viability by broth dilution method; type: functional
[22] = Ulcerogenicity in Wistar rat assessed as gastric lesions by measuring ulcer severity index at 60 mg/kg , po measured after 17 hrs relative to ibuprofen; type: toxicity, organism-based; conditions: in vivo
Rattus norvegicus [23] = experiment: Antiinflammatory activity in po dosed rat; type: functional

Compound: O=C1C=C/C(=C\c2cccc([N+](=O)[O-])c2)O1
EC50 (SK-OV-3): 5.9 to 21 µg/mL (≈ 27.2 to 96.7 µM)
EC50 (A549): 5.9 to 21 µg/mL (≈ 27.2 to 96.7 µM)
EC50 (NIH3T3): 5.9 to 21 µg/mL (≈ 27.2 to 96.7 µM)

MIC (Aspergillus fumigatus [1]): 1.34 µg/mL (≈ 3.9 µM)
Compound: CC(C)(C)C(=O)OCC1C=C(c2ccc(Cl)c(Cl)c2)C(=O)O1 (stereo not drawn)

IC50 [2]: 0.5 to 0.6 µM
Compound: CS(=O)(=O)c1ccc(C2=C3c4ccccc4CCC3OC2=O)cc1 (stereo not drawn)

IC50 (Salmonella typhimurium): 50 µM
Compound: CCC1=C(Br)/C(=C/Br)OC1=O

Compound: CCC1(CC)CC(CCOC(=O)c2ccc(C)cc2)OC1=O (stereo not drawn)
ED50 (Mus musculus [3]): 89.9 to 285 mg/kg

MIC (Escherichia coli [4]): 31 µg/mL (≈ 80.3 µM)
Compound: O=C1C=C(c2ccc(Br)cc2)O/C1=N\C12CC3CC(CC(C3)C1)C2

Compound: Cc1ccc(-c2cc(C(F)(F)F)nn2-c2ccc(S(N)(=O)=O)cc2)cc1 [CELECOXIB]
ED50 (Rattus norvegicus [5]): 0.2 mg/kg/day

Compound: COc1cc(/C=C2\C=CC(=O)O2)c(OC)c2c1C(=O)c1ccccc1C2=O
EC50 (SK-OV-3): 9.2 to 16.5 µg/mL (≈ 25.4 to 45.5 µM)
EC50 (A549): 9.2 to 16.5 µg/mL (≈ 25.4 to 45.5 µM)
EC50 (NIH3T3): 9.2 to 16.5 µg/mL (≈ 25.4 to 45.5 µM)

Compound: O=C1OCCC1CC(F)(F)F (stereo not drawn)
IC50 [6]: 105 µM
CD50 (Mus musculus [7]): 30 mg/kg

Compound: Cc1c(C)c2c(c(C)c1O)CCC(C)(CC1OC[C@@H]([C@H]3OC(=O)C(O)=C3O)O1)O2 (stereo partly drawn)
inhibition (Liver): 100%

MIC (Candida albicans [8]): 2 µg/mL (≈ 6.64 µM)
Compound: CC(=O)OCC1C=C(c2ccc(Cl)c(Cl)c2)C(=O)O1 (stereo not drawn)

MIC (Staphylococcus aureus [9]): 15.6 µg/mL (≈ 42.2 µM)
MIC (Escherichia coli [4]): 62.5 µg/mL (≈ 169 µM)
Compound: COC(=O)C(Cl)C1(Cl)OC(c2ccc(Cl)cc2)=C(Cl)C1=O (stereo not drawn)

Compound: CC1COc2c(N3CCN(C)CC3)c(F)cc3c(=O)c(C(=O)O)cn1c23 (stereo not drawn) [OFLOXACIN]
inhibition zone (IZ) (Escherichia coli [10]): 24 mm

Compound: CC(C1CCOC1=O)C(F)(F)F (stereo not drawn)
IC50 [6]: 142 µM
CD50 (Mus musculus [7]): 30 mg/kg

MIC (Staphylococcus aureus [11]): 12.5 to 50 µg/mL (≈ 41.6 to 166 µM)
MIC (Pseudomonas aeruginosa): 12.5 to 50 µg/mL (≈ 41.6 to 166 µM)
MIC (Escherichia coli [12]): 12.5 to 50 µg/mL (≈ 41.6 to 166 µM)
MIC (Rhizopus arrhizus): 12.5 to 50 µg/mL (≈ 41.6 to 166 µM)
MIC (Candida albicans [13]): 12.5 to 50 µg/mL (≈ 41.6 to 166 µM)
MIC (Aspergillus niger): 12.5 to 50 µg/mL (≈ 41.6 to 166 µM)
Compound: O=C1OC(c2ccc(Cl)cc2)=C/C1=C\c1ccc(F)cc1

MIC (Candida albicans [8]): 1 µg/mL (≈ 3.75 µM)
Compound: CC(=O)OCC1C=C(c2cccc(Cl)c2)C(=O)O1 (stereo not drawn)

Compound: O=C1OC(c2ccc3ccccc3c2)=C/C1=C\c1cc2ccc(Cl)cc2nc1Cl
inhibition (INH) (Rattus norvegicus [14]): 56 - 63%

Compound: O=C1OC(c2ccc3ccccc3c2)=C/C1=C\c1ccccc1[N+](=O)[O-]
inhibition in vivo at 20 mg/kg (Rattus norvegicus [15]): 74.8 to 89.7%
inhibition in vivo at 20 mg/kg (Mus musculus [16]): 70 to 74%

IC50 (Salmonella typhimurium): 15 µM
Compound: O=C1C=CC(=C(Br)Br)O1

Compound: CC1(C)OC(c2ccc(S(C)(=O)=O)cc2)=C(c2cc(F)cc(F)c2)C1=O
inhibition in vivo at 3 mg/kg (Rattus norvegicus [17]): 34%
UI [18]: 1.8
ED50 (Rattus norvegicus [5]): 0.03 mg/kg/day
inhibition in vivo at 3 mg/kg (Rattus norvegicus [19]): 34%

MIC (Plasmodium falciparum): 0.5 to 0.72 µg/mL (≈ 1.25 to 1.8 µM)
Compound: COc1cccc2cc(/C=C3/CC(c4ccc(Cl)cc4)OC3=O)c(Cl)nc12 (stereo not drawn)

Compound: O=C1OC(c2ccc(-c3ccccc3)cc2)=C/C1=C\c1cc2ccc(Cl)cc2nc1Cl
inhibition (INH) (Rattus norvegicus [14]): 56 - 63%

Compound: Cc1ccc2cc(/C=C3\C=C(c4ccc5ccccc5c4)OC3=O)c(Cl)nc2c1
inhibition (INH) (Rattus norvegicus [14]): 56 - 63%

Compound: COc1cc(/C=C2/C=C(c3ccc(C)cc3C)OC2=O)cc(OC)c1OC
inhibition in vivo at 20 mg/kg (Rattus norvegicus [20]): 48.4%

Compound: CC(=O)N1CCN(c2ccc(OCC3COC(Cn4ccnc4)(c4ccc(Cl)cc4Cl)O3)cc2)CC1 (stereo not drawn) [KETOCONAZOLE]
MIC (Lichtheimia corymbifera): 16.6 µg/mL (≈ 31.2 µM)
MIC (Aspergillus fumigatus [21]): 16.6 µg/mL (≈ 31.2 µM)

Compound: CC(C)Cc1ccc(C2=C/C(=C\c3ccccc3Cl)C(=O)O2)cc1
UI [22]: 0.2

Compound: CC1(O)OC(=O)C(c2ccc(Cl)cc2)=C1c1ccc(S(C)(=O)=O)cc1 (stereo not drawn)
ED50 (Rattus norvegicus [23]): 1.4 mg/kg

Compound: CC1(CC(F)(F)F)COC(=O)C1 (stereo not drawn)
IC50 [6]: 8 µM
CD50 (Mus musculus [7]): 3 mg/kg

MIC (Staphylococcus aureus [11]): 12.5 to 50 µg/mL (≈ 34.6 to 138 µM)
MIC (Pseudomonas aeruginosa): 12.5 to 50 µg/mL (≈ 34.6 to 138 µM)
MIC (Escherichia coli [12]): 12.5 to 50 µg/mL (≈ 34.6 to 138 µM)
MIC (Rhizopus arrhizus): 12.5 to 50 µg/mL (≈ 34.6 to 138 µM)
MIC (Candida albicans [13]): 12.5 to 50 µg/mL (≈ 34.6 to 138 µM)
MIC (Aspergillus niger): 12.5 to 50 µg/mL (≈ 34.6 to 138 µM)
Compound: O=C1OC(c2ccc(Cl)cc2)=C/C1=C\c1ccc(Br)cc1

Compound: CCC1(CC)CC(CCNC(=O)c2ccccc2)OC1=O (stereo not drawn)
ED50 (Mus musculus [3]): 89.9 to 285 mg/kg
